Data: patent US10040791B2, “Isoxazole derivative as mutant isocitrate dehydrogenase 1 inhibitor” (Daiichi Sankyo Company, Limited, priority 2014, dated 2018)

Assays:
[1] = target: IDH1R132C (Homo sapiens (Human), UniProt O75874, R132C); experiment: Inhibitory activity against IDH1R132C enzyme (NADPH detection, WST-8); format: biochemical; details: 10 nM, residual NADPH detected with WST-8, read-out: Test Example 1 IDH1 R132C IC50
[2] = test system: HT-1080 cells expressing IDH1R132C; experiment: 2-HG production inhibitory activity using HT1080 cell; format: cell-based, human; details: Homo sapiens, HT-1080; 2-HG production, HT1080 cells; read-out: Test Example 3 IC50
Procedure: Then, 100 μL of growth medium B was added to each well, further 25 μL of a solution of each compound diluted to a predetermined concentration with growth medium B was added to each well, and the cells were incubated at 37° C. for 2 days under 5% CO2. […] Then, 150 μL of ultrapure water was further added to each well, and the mixture was stirred by pipetting and stored at −20° C.
The preserved solutions were thawed at room temperature.

[3] = test system: HT1080 xenografted mice (IDH1R132C); experiment: 2-HG production inhibitory activity using HT1080 xenografted mice; format: in vivo, mouse; details: Mus musculus, HT-1080, po, 6 h, 2-HG production, HT1080 xenografted mice; read-out: Test Example 5 Ratio (%)
Outline: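 Mice bearing HT1080 tumors received 75 mg/kg compound by oral gavage twice a day, three doses in total, at 10 mL/kg; vehicle-dosed mice were negative controls. Tumors were collected 6 h after the final dose, frozen, homogenized in methanol and centrifuged, and 2-HG was measured in the extracts.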

IDH1R132C, sequence (O75874 whole entry R132C): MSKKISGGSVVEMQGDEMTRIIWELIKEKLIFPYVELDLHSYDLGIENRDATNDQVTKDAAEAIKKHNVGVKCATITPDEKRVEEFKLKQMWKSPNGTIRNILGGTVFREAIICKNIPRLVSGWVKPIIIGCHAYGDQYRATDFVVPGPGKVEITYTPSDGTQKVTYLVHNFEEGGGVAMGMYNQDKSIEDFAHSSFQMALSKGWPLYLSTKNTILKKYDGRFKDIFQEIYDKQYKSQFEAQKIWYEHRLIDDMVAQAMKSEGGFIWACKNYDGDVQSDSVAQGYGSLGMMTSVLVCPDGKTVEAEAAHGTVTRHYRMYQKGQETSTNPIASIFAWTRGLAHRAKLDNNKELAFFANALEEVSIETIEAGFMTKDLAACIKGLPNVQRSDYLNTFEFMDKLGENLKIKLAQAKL

| SMILES | IC50 [1] [nM] | IC50 [2] [nM] | response vs control in vivo at 75 mg/kg [3] [%] |
| --- | --- | --- | --- |
| CC1(c2onc(-c3c(Cl)cc(Cl)cc3Cl)c2C(=O)n2ccc3c(/C=C/C(=O)O)cccc32)COC1 [Example 1, (2E)-3-(1-{[5-(3-Methyloxetan-3-yl)-3-(2,4,6-trichlorophenyl)-1,2-oxazol-4-yl]carbonyl}-1H-indol-4-yl)prop-2-enoic acid] | 56 | 33 | 21 |
| C=CC(=O)N1CCC(C)(c2onc(-c3c(Cl)cc(Cl)cc3Cl)c2C(=O)n2cc(C)c3c(/C=C/C(=O)O)cccc32)CC1 [Example 113] | 104 | 2 | 13 |
| C=CC(=O)N1CCC(c2onc(-c3ccc(Cl)cc3Cl)c2C(=O)n2cc3c4c(cccc42)/C(=C/C(=O)O)CC3)CC1 [Example 131, (2E)-[1-{[5-(1-Acryloylpiperidin-4-yl)-3-(2,4-dichlorophenyl)-1,2-oxazol-4-yl]carbonyl}-3,4-dihydrobenzo[cd]indol-5(1H)-ylidene]ethanoic acid] | 133 | 4 | 3 |
| C=CC(=O)N1CC2(CC2)N(c2onc(-c3c(Cl)cccc3OC)c2C(=O)n2ccc3c(/C=C/C(=O)O)cccc32)C[C@H]1CC [Example 161, (2E)-3-[1-({5-{(6R)7-Acryloyl-6-ethyl-4,7-diazaspiro[2.5]oct-4-yl]-3-(2-chloro-6-methoxyphenyl)-1,2-oxazol-4-yl}carbonyl)-1H-indol-4-yl]prop-2-enoic acid] | 98 | 121 | 72 |
